The conditions of data set [1]: humans, long term administration; cited from earlier work.
Data set [2] has as its system mdx mice. Briefly: Wire hang test in mdx mice. The format is in vivo. As to conditions: dantrolene 10 mg/kg/day with oligo AON23 10 mg/kg/week versus AON23 10 mg/kg/week alone, p=0.022.
Data set [3] deals with K562 cells. The data set is described as follows: Maximal respiration with sulfasalazine inhibition of the transporter. As to conditions: FIG. S7A-E. The format is cell-based, human. The method, then:
1.25×10^5 K562 cells were plated on a Seahorse plate in Seahorse XF DMEM media (Agilent) containing 25 mM glucose and 4 mM glutamine (ThermoFisher Scientific). Oxygen consumption and extracellular acidification rates were simultaneously recorded by a Seahorse XFe96 Analyzer (Agilent) using the mito stress test protocol, in which cells were sequentially perturbed by […] oligomycin, 1 μM CCCP and […] antimycin (Sigma). Data were analyzed using the Seahorse Wave Desktop Software (Agilent). Data were not corrected for carbonic acid derived from respiratory CO2. For seahorse in HeLa and HAP1 cells, 5×104 and 1×10^5 cells were plated in a 96-well seahorse plate the day before the experiment (respectively). Cells were trypsinized after the experiment and recounted and the data was normalized to cell number.

The target in data set [4] is T1, cystine/glutamate antiporter SLC7A11 (xCT) (Homo sapiens, UniProt Q9UPY5).
T1 construct: endogenous in cells; host or cells: K562 (probable)
T1 sequence (Q9UPY5 1-501): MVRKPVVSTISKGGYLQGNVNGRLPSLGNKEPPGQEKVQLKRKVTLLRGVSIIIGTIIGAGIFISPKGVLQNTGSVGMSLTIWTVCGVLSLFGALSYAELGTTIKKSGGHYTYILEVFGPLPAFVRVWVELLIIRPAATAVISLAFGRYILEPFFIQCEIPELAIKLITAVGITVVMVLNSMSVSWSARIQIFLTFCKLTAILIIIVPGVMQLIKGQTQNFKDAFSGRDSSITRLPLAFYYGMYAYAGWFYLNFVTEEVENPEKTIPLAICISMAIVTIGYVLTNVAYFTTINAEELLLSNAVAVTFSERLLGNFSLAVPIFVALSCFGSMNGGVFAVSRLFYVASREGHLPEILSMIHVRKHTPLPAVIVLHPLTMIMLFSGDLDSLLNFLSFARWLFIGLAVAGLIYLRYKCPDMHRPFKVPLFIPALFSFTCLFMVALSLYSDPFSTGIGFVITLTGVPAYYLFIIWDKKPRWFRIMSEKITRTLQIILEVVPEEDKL
T1 sequence (P08195 1-529 partner): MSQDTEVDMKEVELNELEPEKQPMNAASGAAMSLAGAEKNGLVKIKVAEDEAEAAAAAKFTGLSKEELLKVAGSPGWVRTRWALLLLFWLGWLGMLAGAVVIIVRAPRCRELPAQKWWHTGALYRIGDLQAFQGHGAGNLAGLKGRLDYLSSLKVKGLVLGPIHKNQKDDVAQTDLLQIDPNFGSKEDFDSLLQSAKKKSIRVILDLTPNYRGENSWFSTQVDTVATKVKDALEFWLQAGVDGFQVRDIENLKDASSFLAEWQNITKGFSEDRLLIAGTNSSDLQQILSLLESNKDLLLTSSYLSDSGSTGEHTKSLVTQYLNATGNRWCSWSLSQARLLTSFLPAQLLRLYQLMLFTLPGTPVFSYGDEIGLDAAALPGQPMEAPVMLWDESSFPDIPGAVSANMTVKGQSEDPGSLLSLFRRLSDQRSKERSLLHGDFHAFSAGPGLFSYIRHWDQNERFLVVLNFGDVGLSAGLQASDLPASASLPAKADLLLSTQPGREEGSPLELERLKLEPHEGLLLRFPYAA
Briefly: Glutamate secretion with sulfasalazine inhibition of the transporter. The format is cell-based. As to conditions: K562 cells; FIG. S7A-E. The method, then:
Glutamate levels were determined using a commercially available AMPLEX kit (Life Technologies). LUC7L2WT, LUC7L2Rescue (LUC7L2KO cells were a LUC7L2 cDNA was stably expressed), LUC7L2KO and ASO treated K562 or HAP1 cells were grown for 24 h in fresh culture media and counted. Cells were then washed with PBS, the media was replaced and the cells were incubated for another 3 h. Medias were then collected and centrifuged at 2,000 g for 3 min, and glutamate concentrations were determined from the supernatant.

Data set [5] addresses T2, PFKM (Homo sapiens, UniProt P08237).
T2 sequence (P08237 2-780 limits assumed): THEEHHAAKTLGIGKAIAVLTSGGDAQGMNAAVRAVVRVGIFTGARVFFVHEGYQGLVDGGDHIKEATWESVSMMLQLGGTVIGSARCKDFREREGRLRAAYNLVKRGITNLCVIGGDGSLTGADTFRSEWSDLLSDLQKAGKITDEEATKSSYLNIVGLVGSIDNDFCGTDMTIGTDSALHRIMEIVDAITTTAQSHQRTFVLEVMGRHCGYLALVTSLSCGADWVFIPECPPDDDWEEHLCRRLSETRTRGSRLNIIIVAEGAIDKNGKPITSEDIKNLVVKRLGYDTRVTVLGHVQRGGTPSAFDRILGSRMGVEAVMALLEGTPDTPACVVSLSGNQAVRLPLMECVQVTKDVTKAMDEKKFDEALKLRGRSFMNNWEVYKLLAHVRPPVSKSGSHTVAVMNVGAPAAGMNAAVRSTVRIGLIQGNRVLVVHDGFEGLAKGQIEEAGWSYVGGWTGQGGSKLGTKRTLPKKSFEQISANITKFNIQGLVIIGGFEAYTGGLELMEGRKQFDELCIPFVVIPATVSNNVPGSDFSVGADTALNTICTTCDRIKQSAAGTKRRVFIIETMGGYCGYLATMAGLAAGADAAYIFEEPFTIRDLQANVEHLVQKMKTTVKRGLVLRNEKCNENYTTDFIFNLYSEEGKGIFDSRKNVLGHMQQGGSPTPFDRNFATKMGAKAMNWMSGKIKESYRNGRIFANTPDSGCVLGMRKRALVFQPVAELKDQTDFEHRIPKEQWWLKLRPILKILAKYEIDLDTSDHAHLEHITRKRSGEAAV
Conditions: PFKM / PFK inhibition, cited from earlier work.

Like-named read-outs stand apart in the source and are kept apart here.

As for `O=C1CN(/N=C/c2ccc(-c3ccc([N+](=O)[O-])cc3)o2)C(O)=N1` [Dantrolene], in data set [1], the “dose shown to be safe” value is given as “up to 8 mg/kg/day”. The “functional benefit in wire hang test” value in data set [2] was “functional benefit”.

As to `O=C(O)c1cc(/N=N/c2ccc(S(=O)(=O)Nc3ccccn3)cc2)ccc1O` [sulfasalazine (SAS), sulfasalazine], the maximal respiration result in data set [3] is given as “promoted maximal respiration”. In data set [4], the glutamate secretion entry is “prevented glutamate secretion”.

As for tryptolinamide [tryptonilamide], the “shift of energy metabolism from glycolysis to OXPHOS” value was “glycolysis to OXPHOS shift” in data set [5] and “strong effect” in data set [5] (listed as tryptolinamide).

(Values after patent US11987795B2, “Methods of modulating SLC7A11 pre-mRNA transcripts for diseases and conditions associated with expression of SLC7A11” (The Broad Institute, Inc., priority 2020, dated 2024).)
